Data from patent US10966951B2, “Compositions and methods for lowering triglycerides in a subject having reduced kidney function” (Amarin Pharmaceuticals Ireland Limited, priority 2017, dated 2021).

Tests used:
Type in all cases: in vivo, human
[1] = tested on: patients with reduced kidney function (eGFR<90 mL/min/1.73 m^2) and diabetes mellitus; assay: Post-hoc ANCHOR analysis, reduced kidney function and diabetes mellitus (Example 5); settings: 4 g/day
Description: (§1) CVD-related (e.g., atherogenic) parameters were analyzed in a post-hoc study of 198 patients from the multi-center, placebo-controlled, randomized double-blind, 12-week study described in Example 1. These 198 patients have reduced kidney function (e.g., eGFR<90 mL/min/1.73 m^2 for ≥3 months) and diabetes mellitus.
98 patients were randomized to E-EPA and 100 patients were randomized to placebo. In total, atherogenic parameters were analyzed in all 198 patients, 56% of which were male and 97% of which were white. The mean age of the 198 patients was 63 years old.
(§2) The primary objective of this post-hoc study was to determine if and how 4 g of daily of >96% E-EPA, compared to placebo, affects patients with reduced kidney function, diabetes mellitus, and high triglyceride levels. The secondary objective was to determine if and how 4 g daily >96% E-EPA, compared to placebo, affected CVD-related parameters in patients having a high risk for CVD and fasting TG levels 200 mg/dL and <500 mg/dL, despite treatment to LDL-C goal on statin therapy. These CVD-parameters include lipid levels, lipoprotein levels, and inflammatory markers, such as TC, LDL-C, HDL-C, vLDL-C, vLDL-TG, RLP-C, non-HDL-C, Apo B, Apo C-III, Lp-PLA, hsCRP, and ox-LDL, and in plasma and RBC EPA concentration. CVD-parameters were analyzed for median difference in percent change from baseline to week 12 in subjects receiving 4 g/day of E-EPA and those receiving the placebo.
(§3) The median difference in lipid/lipoprotein, apolipoprotein, and inflammatory parameters were determined from baseline to week 12 for 4/g day of E-EPA compared to placebo.

[2] = tested on: patients with reduced kidney function (eGFR<90 mL/min/1.73 m^2) and hsCRP≥2.0 mg/L; assay: Post-hoc ANCHOR analysis, reduced kidney function and hsCRP≥2.0 mg/L (Example 6); settings: 4 g/day
Description: as §1, with “152” for “198”, “hsCRP≥2.0 mg/L.” for “diabetes mellitus.”
72 patients were randomized to E-EPA and 80 patients were randomized to placebo. In total, atherogenic parameters were analyzed in all 152 patients, 54% of which were male and 99% of which were white. The mean age of the 152 patients was 64 years old.
as §2, with “this post-hoc study, was to” for “this post-hoc study was to”, “kidney function, elevated hsCRP (e.g, hsCRP≥2.0 mg/L), and high” for “kidney function, diabetes mellitus, and high”, “g daily of >96% E-EPA,” for “g daily >96% E-EPA,”, “in patients with a high” for “in patients having a high”
as §3

[3] = tested on: patients with chronic kidney disease (eGFR<60 mL/min/1.73 m^2); assay: Post-hoc ANCHOR analysis, chronic kidney disease: lipid, lipoprotein, oxidation and inflammation parameters (Example 7); settings: CKD
Description: CVD-related (e.g., atherogenic) parameters were analyzed in a post-hoc study of 55 patients from the multi-center, placebo-controlled, randomized double-blind, 12-week study described in Example 1. These 55 patients have chronic kidney disease (e.g., eGFR<60 mL/min/1.73 m^2 for ≥3 months). There was no lower limit of eGFR specified.
19 patients were randomized to E-EPA and 36 patients were randomized to placebo. One patient in each group discontinued and was excluded from efficacy analyses (but not safety analyses). EPA levels in plasma and RBC were measured in 23 of the 55 patients. These measurements were taken on 7 of the patients randomized to E-EPA and on 16 of the patients that were randomized to the placebo.
The primary objective of this post-hoc study, which is based on an intention to treat, was to determine if and how 4 g daily of >96% E-EPA affects patients with stage 3 chronic kidney disease (e.g., eGFR<60 mL/min/1.73 m^2 for ≥3 months). The secondary objective was to determine if and how 4 g daily of >96% E-EPA, compared to a placebo, affected CVD-related parameters in patients with a high risk of CVD and fasting TG levels ≥[…] and <500 mg/dL, despite LDL-C goal on statin therapy. These CVD-parameters include lipid levels, lipoprotein levels, and inflammatory markers, such as TC, LDL-C, HDL-C, vLDL-C, vLDL-TG, RLP-C, non-HDL-C, Apo B, Apo C-III, Lp-PLA, hsCRP, and ox-LDL, and in plasma and RBC EPA concentration. CVD-parameters were analyzed for median difference in percent change from baseline to week 12 in subjects receiving 4 g/day of E-EPA and those receiving the placebo.
The median difference in percent change from baseline between 4 g/day of E-EPA and placebo for the primary efficacy variable and additional assessments were estimated using the Hodges-Lehmann method (P values from the Wilcoxon rank-sum test for treatment comparisons). Using the Hodges-Lehmann method, departures from normal distribution were observed; for normally distributed parameters, an analysis of covariance model was used with least squares (LS) means and standard errors (SE). Missing values were imputed using the last-observation-carried-forward method. For all post hoc analyses, the alpha for statistical significance was 0.05.

- albumin after 12 weeks ([1]; after 12 weeks): 4.5 g/dL
- serum creatinine after 12 weeks ([1]; after 12 weeks): 0.9 mg/dL
- albumin before treatment ([1]; before the 12 weeks): 4.5 g/dL
- eGFR before treatment ([1]; before the 12 weeks): 75.4 mL/min/1.73 m^2
- serum creatinine before treatment ([1]; before the 12 weeks): 0.9 mg/dL
- albumin after 12 weeks ([2]; after 12 weeks): 4.4 g/dL
- serum creatinine after 12 weeks ([2]; after 12 weeks): 0.9 mg/dL
- albumin before treatment ([2]; before the 12 weeks): 4.5 g/dL
- eGFR before treatment ([2]; before the 12 weeks): 72.4 mL/min/1.73 m^2
- serum creatinine before treatment ([2]; before the 12 weeks): 0.9 mg/dL
SMILES: CC/C=C\C/C=C\C/C=C\C/C=C\C/C=C\CCCC(=O)OCC [E-EPA, ethyl eicosapentaenoate]
- VLDL-C Median Difference in % Change From Baseline vs Placebo ([3]; 4 g/day vs placebo, week 12): −26.7%
- hsCRP Median Difference in % Change From Baseline vs Placebo ([3]; 4 g/day vs placebo, week 12, listed as Icosapent Ethyl): −25.0%
- Apo B Baseline ([3]; 4 g/day, baseline): 87.0 mg/dL
- HDL-C Baseline ([3]; 4 g/day, baseline): 35.0 mg/dL
- LDL-C Baseline ([3]; 4 g/day, baseline): 76.0 mg/dL
- VLDL-C Baseline ([3]; 4 g/day, baseline): 42.0 mg/dL
- hsCRP Baseline ([3]; 4 g/day, baseline): 1.9 mg/L
- RLP-C Baseline ([3]; 4 g/day, baseline, n = 9): 17.0 mg/dL
- Apo B Change From Baseline, % ([3]; 4 g/day, week 12): −7.2%
- Apo B End of Treatment ([3]; 4 g/day, week 12): 83.0 mg/dL
- Apo C-III Change From Baseline, % ([3]; 4 g/day, week 12): −7.3%
- HDL-C Change From Baseline, % ([3]; 4 g/day, week 12): 0.9%
- LDL-C Change From Baseline, % ([3]; 4 g/day, week 12): −6.5%
- Lp-PLA2 End of Treatment ([3]; 4 g/day, week 12): 150.0 ng/mL
- Non-HDL-C Change From Baseline, % ([3]; 4 g/day, week 12): −6.4%
- Ox-LDL Change From Baseline, % ([3]; 4 g/day, week 12): −9.5%
- RLP-C End of Treatment ([3]; 4 g/day, week 12): 10.0 mg/dL
- TC Change From Baseline, % ([3]; 4 g/day, week 12): −8.1%
- hsCRP Change From Baseline, % ([3]; 4 g/day, week 12): −16.9%
- hsCRP End of Treatment ([3]; 4 g/day, week 12): 2.1 mg/L
